Data on 34 molecules can be found in PMC3180999 (Journal of medicinal chemistry, 2010).

The subject of one data set is LNCaP/AR cells. In words: PSA expression readout in LNCaP/AR. It is filed as cell-based. The note with it: for activity using PSA levels in vitro: hormone refractory cell line LNCaP/AR, Scheme 17; for activity in the hormone refractory LNCaP/AR assay: Schemes 18 and 19; for activity: hormone-refractory LNCaP/AR, Scheme 21.
Data set [1] has as its system AR. In words: luciferase reporter assay. The note with it: for relative luciferase activity: vs bicalutamide and 27 as standards, Scheme 8; for luciferase assay activity: vs 21 and 22 as standards, Scheme 13; for luciferase reporter assay activity: Scheme 14. It is filed as cell-based.
Another data set relates to PSA secretion. In words: relative PSA level / PSA secretion assay, cell line not named. It is filed as cell-based. The note with it: for relative PSA expression levels: vs bicalutamide and 27 as standards, Scheme 9.
For data set [2], the system named is AR. In words: activity test, assay not named. In kind it is cell-based. The note with it: 27 as the standard, Scheme 10.
Data set [3] in a line: pharmacokinetics: serum concentration, steady state concentration.
The mark [4] stands for this setting: vs 27 and 38 as standards, Scheme 12.
Setting [5] is: vs 21 and 22 as standards, Scheme 13.

Take `CC(O)(CS(=O)(=O)c1ccc(F)cc1)C(=O)Nc1ccc(C#N)c(C(F)(F)F)c1` (centres unmarked) [bicalutamide, reference compound]: the “activity using PSA levels in vitro” value in the data set on LNCaP/AR cells was “inactive”. With `CCC1(C)C(=O)N(c2ccc(C)cc2)C(=S)N1c1ccc(C#N)c(C(F)(F)F)c1` (centres unmarked) [compound 36, 4-[3-(4-Methylphenyl)-5-ethyl-5-methyl-4-oxo-2-thioxoimidazolidin-1-yl]-2-trifluoromethylbenzonitrile], the relative luciferase activity result in the data set on AR [1] was “reduced activity relative to 27”.

As to `CCC1(CC)C(=O)N(c2ccc(C)cc2)C(=S)N1c1ccc(C#N)c(C(F)(F)F)c1` [compound 37, 4-[3-(4-Methylphenyl)-5,5-diethyl-4-oxo-2-thioxoimidazolidin-1-yl]-2-trifluoromethylbenzonitrile], the relative luciferase activity result in the data set with AR [1] was “reduced activity relative to 27”. As for `Cc1ccc(N2C(=S)N(c3ccc(C#N)c(C(F)(F)F)c3)C(=O)C23CCCC3)cc1` [compound 39, 4-(4-Oxo-2-thioxo-1-(4-methylphenyl)-1,3-diazaspiro[4.4]non-3-yl)-2-trifluoromethylbenzonitrile], in the data set on PSA secretion, the “relative PSA expression levels” value was “comparable to the dimethyl analogue 27”. On to `Cc1ccc(N2C(=S)N(c3ccc(C#N)c(C(F)(F)F)c3)C(=O)C23CCN(C)CC3)cc1` [compound 43, 4-(8-Methyl-4-oxo-2-thioxo-1-(4-methylphenyl)-1,3,8-triazaspiro[4.5]dec-3-yl)-2-trifluoromethylbenzonitrile], for which, in the data set with PSA secretion, the “relative PSA expression levels” value is “distinctly less active”. With `Cc1ccccc1N1C(=S)N(c2ccc(C#N)c(C(F)(F)F)c2)C(=O)C12CCC2` [compound 44], the result in the data set on AR [2] was active. As for `N#Cc1ccc(N2C(=O)C3(CCC3)N(c3ccccc3C(=O)O)C2=S)cc1C(F)(F)F` [compound 45], the result in the data set on AR [2] was inactive. Same read-out and setting: in the case of `Cc1ccc(N2C(=S)N(c3ccc(C#N)c(C(F)(F)F)c3)C(=O)C2(CCl)CCl)cc1` [compound 46] it was “decreased activity”; in that of `Cc1ccc(N2C(=S)N(c3ccc(C#N)c(C(F)(F)F)c3)C(=O)C2(C)CF)cc1` (centres unmarked) [compound 47], “good activity”. For the molecule `N#Cc1ccc(N2C(=O)C3(CCC3)N(c3ccc(-c4ccccc4)cc3)C2=S)cc1C(F)(F)F` [compound 48], in the data set with PSA secretion (vs standards, Scheme 11), the “relative PSA readout” value is recorded as “very similar in activity to 38”. As to `N#Cc1ccc(N2C(=O)C3(CCC3)N(c3ccc(O)cc3)C2=S)cc1C(F)(F)F` [compound 49, 4-(8-Oxo-6-thioxo-5-(4-hydroxyphenyl)-5,7-diazaspiro[3.4]oct-7-yl)-2-trifluoromethylbenzonitrile], the “relative PSA readout” value with PSA secretion (vs standards, Scheme 11) is recorded as “very similar in activity to 38”. For the molecule `CC1(C)C(=O)N(c2ccc(C#N)c(C(F)(F)F)c2)C(=S)N1c1ccc(C(F)(F)F)cc1` [compound 52, 4-(4,4-Dimethyl-5-oxo-2-thioxo-3-(4-trifluoromethylphenyl)imidazolidin-1-yl)-2-trifluoromethylbenzonitrile], the “relative PSA readout” value with PSA secretion (vs standards, Scheme 11) is recorded as “slightly more active than the methyl analogue 27”.

Consider `Cc1ccc(N2C(=S)N(c3ccc(C#N)c(C(F)(F)F)c3)C(=N)C23CCC3)cc1` [compound 53], for which the “relative PSA readout” value with PSA secretion (setting [4]) is “nearly as active as the parent compounds 27 and 38”.

On to `Cc1ccc(N2C(=S)N(c3ccc(C#N)c(C(F)(F)F)c3)C(=N)C2(C)C)cc1` [compound 54], for which, in the data set with PSA secretion (setting [4]), the “relative PSA readout” value is “nearly as active as the parent compounds 27 and 38”. `CC1(C)C(=S)N(c2ccc(C#N)c(C(F)(F)F)c2)C(=S)N1c1ccc(O)cc1` [compound 55]: in the data set with PSA secretion (setting [4]), the “relative PSA readout” value was “not as active as the parent thiohydantoin 28”. Still for that read-out and setting: the result for `CC1(C)C(=O)N(c2ccc(C#N)c(C(F)(F)F)c2)C(=O)N1c1ccc(O)cc1` [compound 56] reads “not as active as the parent thiohydantoin 28”. With `C/N=C1\N(c2ccc(C#N)c(C(F)(F)F)c2)C(=S)N(c2ccc(C)cc2)C12CCC2` [compound 57], the “relative PSA levels” value in the data set on PSA secretion (setting [5]) is listed as “somewhat active”. For the same molecule, in the data set on AR [1], the luciferase assay activity entry is recorded as “somewhat active”. `CC/N=C1\N(c2ccc(C#N)c(C(F)(F)F)c2)C(=S)N(c2ccc(C)cc2)C1(C)C` [compound 60]: the “relative PSA levels” value with PSA secretion (setting [5]) is given as “somewhat active”. Moreover, the luciferase assay activity result in the data set on AR [1] is on record as “somewhat active”. With `Cc1ccc(N2/C(=N/c3ccc(C#N)c(C(F)(F)F)c3)S/C(=N\C(=S)Nc3ccc(C#N)c(C(F)(F)F)c3)C2(C)C)cc1` [compound 63], the “relative PSA levels” value in the data set with PSA secretion (Scheme 14) was “excellent activity comparable to their parent thiohydantoin analogues 27 and 38”. Further, in the data set on AR [1], the “luciferase reporter assay activity” value is “excellent activity comparable to their parent thiohydantoin analogues 27 and 38”. Consider `Cc1ccc(N2/C(=N/c3ccc(C#N)c(C(F)(F)F)c3)S/C(=N\C(=S)Nc3ccc(C#N)c(C(F)(F)F)c3)C23CCC3)cc1` [compound 64], for which the “relative PSA levels” value in the data set on PSA secretion (Scheme 14) is “excellent activity comparable to their parent thiohydantoin analogues 27 and 38”. The “luciferase reporter assay activity” value with AR [1] is “excellent activity comparable to their parent thiohydantoin analogues 27 and 38”.

As to `N#Cc1ccc(N2C(=O)C3(CCC3)N(c3ccc(C=O)cc3)C2=S)cc1C(F)(F)F` [compound 75, 4-[5-(4-Formylphenyl)-8-oxo-6-thioxo-5,7-diazaspiro[3.4]oct-7-yl]-2-trifluoromethylbenzonitrile], the IC50 in the data set on PSA secretion fell in the range of 200 to 300 nM. Still for that read-out and setting: the result for `CC(O)c1ccc(N2C(=S)N(c3ccc(C#N)c(C(F)(F)F)c3)C(=O)C23CCC3)cc1` (centres unmarked) [compound 76, 4-{5-[4-(1-Hydroxyethyl)phenyl]-8-oxo-6-thioxo-5,7-diazaspiro[3.4]oct-7-yl}-2-trifluoromethylbenzonitrile] reads 200 to 300 nM.

In the data set on PSA secretion, `N#Cc1ccc(N2C(=O)C3(CCC3)N(c3ccc(/C=C/C(N)=O)cc3)C2=S)cc1C(F)(F)F` [compound 77, (E)-3-{4-[7-(4-cyano-3-trifluoromethylphenyl)-8-oxo-6-thioxo-5,7-diazaspiro[3.4]oct-5-yl]-phenyl}-2-propanamide] displayed an IC50 of 100 to 150 nM. Turning to `N#Cc1ccc(N2C(=O)C3(CCC3)N(c3ccc(/C=C/CO)cc3)C2=S)cc1C(F)(F)F` [compound 78, (E)-4-{5-[4-(3-Hydroxy-1-propenyl)phenyl]-8-oxo-6-thioxo-5,7-diazaspiro[3.4]oct-7-yl}-2-trifluoromethylbenzonitrile], the IC50 in the data set on PSA secretion lay in the range of 100 to 150 nM. For `CNC(=O)CCCc1ccc(N2C(=S)N(c3ccc(C#N)c(C(F)(F)F)c3)C(=O)C23CCC3)cc1` [compound 80, N-Methyl-4-{4-[7-(4-cyano-3-trifluoromethylphenyl)-8-oxo-6-thioxo-5,7-diaza-spiro[3.4]-oct-5-yl]phenyl}butanamide], in the data set on LNCaP/AR cells, the “activity using PSA levels in vitro” value is “most active compound”. Moreover, the “PK (serum concentration curve)” value in data set [3] (Figure 4) is “poor”. The metabolism seen entry in data set [3] (mouse, in vivo) is reported as “hydrolysis of the N-methyl amide to the acid was seen”. With `CS(=O)(=O)c1ccc(N2C(=S)N(c3ccc(C#N)c(C(F)(F)F)c3)C(=O)C23CCC3)cc1` [compound 86, 4-[5-(4-Methanesulfonylphenyl)-8-oxo-6-thioxo-5,7-diazaspiro[3.4]oct-7-yl]-2-trifluoromethylbenzonitrile], in the data set with LNCaP/AR cells, the “activity in the hormone refractory LNCaP/AR assay” value is reported as “good activity”. On to `COC(=O)c1ccc(N2C(=S)N(c3ccc(C#N)c(C(F)(F)F)c3)C(=O)C2(C)C)cc1` [compound 87, 4-[3-(4-Cyano-3-trifluoromethylphenyl)-5,5-dimethyl-4-oxo-2-thioxo-imidazolidin-1-yl]benzoic acid methyl ester], for which the “activity in the hormone refractory LNCaP/AR assay” value with LNCaP/AR cells is “good activity”. `CNC(=O)c1ccc(N2C(=S)N(c3ccc(C#N)c(C(F)(F)F)c3)C(=O)C2(C)C)cc1` [compound 88, 4-[3-(4-Cyano-3-trifluoromethylphenyl)-5,5-dimethyl-4-oxo-2-thioxo-imidazolidin-1-yl]-N-methylbenzamide]: the “activity in the hormone refractory LNCaP/AR assay” value in the data set with LNCaP/AR cells is recorded as “good activity”. On the same count and under the same terms, the result for `CNC(=O)c1ccc(N2C(=S)N(c3ccc(C#N)c(C(F)(F)F)c3)C(=O)C23CCC3)cc1` [compound 89, N-methyl-4-[7-(4-cyano-3-trifluoromethylphenyl)-8-oxo-6-thioxo-5,7-diazaspiro-[3.4]oct-5-yl]benzamide] reads “good activity”; that for `N#Cc1ccc(N2C(=O)C3(CCC3)N(c3ccc(O)cc3F)C2=S)cc1C(F)(F)F` [compound 90], “good activity”.

With `CNC(=O)c1ccc(N2C(=S)N(c3ccc(C#N)c(C(F)(F)F)c3)C(=O)C2(C)C)cc1F` [compound 92, N-Methyl-4-[3-(4-cyano-3-trifluoromethylphenyl)-5,5-dimethyl-4-oxo-2-thioxoimidazolidin-1-yl]-2-fluorobenzamide], the “dose-response study on castration resistant LNCaP AR cells” value in the data set with LNCaP/AR cells (Figure 9) is on record as “a little more active than 91”. For the same molecule, the activity entry in the data set on LNCaP/AR cells is “very active”. As for `CNC(=O)c1ccc(N2C(=S)N(c3ccc(C#N)c(C(F)(F)F)c3)C(=O)C23CCCC3)cc1F` [compound 93, N-Methyl-4-[3-(4-cyano-3-trifluoromethylphenyl)-4-oxo-2-thioxo-1,3-diazaspiro[4.4]nonan-1-yl]-2-fluorobenzamide], the activity result in the data set on LNCaP/AR cells is listed as “very active”. Same read-out and setting: in the case of `CN(C)C(=O)CCCc1ccc(N2C(=S)N(c3ccc(C#N)c(C(F)(F)F)c3)C(=O)C23CCC3)cc1` [compound 94, N,N-dimethyl-4-[4-(7-(4-cyano-3-trifluoromethylphenyl)-8-oxo-6-thioxo-5,7-diazaspiro-[3.4]octan-5-yl)phenyl]butanamide] it was “quite good activity compared to earlier compounds”; in that of `N#CCCCc1ccc(N2C(=S)N(c3ccc(C#N)c(C(F)(F)F)c3)C(=O)C23CCC3)cc1` [compound 95, 4-[5-(4-(3-Cyanopropyl)phenyl)-8-oxo-6-thioxo-5,7-diazaspiro[3.4]octan-7-yl]-2-(trifluoromethyl) benzonitrile], “quite good activity compared to earlier compounds”.
